Data from US20250327043A1, “ALCOHOL ACYLTRANSFERASE AND A […], TISSUE, AND ORGANISM COMPRISING SAME” (YEDA RESEARCH AND DEVELOPMENT CO. LTD., priority 2022, published 2025).
Entries after “also recorded” stand apart in the source; their conditions may differ.

How the values were obtained:
HuAAT5 = assay: AAT enzyme assay with the purified HuAAT5 enzyme; type: biochemical, Helichrysum umbraculigerum; conditions: acyl donors acetyl-, iso-butyryl-, iso-valeryl- or hexanoyl-CoA, 30° C., 3 h, pH 7.4
Procedure: (§1) Selected AAT genes from Helichrysum were individually cloned into the pET28b vector and expressed in E. coli BL21 (DE3) cells. Bacterial cells were grown overnight in LB medium at 37° C., diluted in fresh LB 1:100, and re-incubated at 37° C. When cultures reached A600=0.6, protein expression was induced with 400 μM of isopropyl-1-thio-β-d-galactopyranoside (IPTG) overnight at 15° C. Bacterial cells were lysed by sonication in 50 mM Tris-HCl pH 8, 0.5 mM phenylmethylsulfonyl fluoride (PMSF, Sigma Aldrich) solution in isopropanol, 10% glycerol and protease inhibitor cocktail (Sigma Aldrich), and 1 mg ml-1 lysozyme (Sigma Aldrich). The whole-cell extract was either kept for functional activity or used for protein purification. Purification of proteins was performed on Ni-NTA agarose beads (Adar Biotech). The proteins were eluted with 200 mM imidazole (Fluka) in a buffer containing 50 mM NaH2PO4, pH 8, and 0.5 M NaCl. Protein concentration of the eluted fractions was measured with Pierce™ 660 nm protein assay reagent (Thermo Scientific).
(§2) Recombinant AAT assays with the enzyme solutions using different donor and acceptor substrates were performed by mixing 7 μl of the cannabinoid acceptors (OA, CBGA, or heliCBGA, 1 mg ml^−1) with 58 μl of a potassium phosphate buffer (100 mM, pH 7.4) and incubating the mixture at 30° C. for 10 min. Next, 5 μl of the acyl-CoA donors (butyryl-CoA, hexanoyl-CoA, iso-valeryl-CoA, or acetyl-CoA, 10 mM) and 30 μl of the enzyme solutions were added. The reactions were incubated at 30° C. for 3 h. To stop the reactions, 100 μl ethanol was added to each tube, vortexed for 10 s, centrifuged at maximum speed for 10 min, and then the supernatant was recovered and used for UPLC-qTOF analysis. The assay with the purified HuAAT5 enzyme was performed by mixing 2 μl of the cannabinoid acceptors (OA, CBGA, heliCBGA, CBDA, Δ^9-THCA or CBCA) with 2 μl of the acyl-CoA donors (butyryl-CoA, iso-butyryl-CoA, hexanoyl-CoA, iso-valeryl-CoA, or acetyl-CoA, 10 mM), 44 μl of a potassium phosphate buffer (100 mM, pH 7.4), and 2 μl of the purified HuAAT5 enzyme solution. The reactions were incubated at 30° C. for 3 h. To stop the reactions, 50 μl ethanol was added to each tube and the acylated compounds were extracted and analyzed as previously described.

TRPV3 ion channel = target: T1, TRPV3 ion channel (Homo sapiens, UniProt Q8NET8); conditions: cited from earlier work
T1 sequence (Q8NET8 1-790): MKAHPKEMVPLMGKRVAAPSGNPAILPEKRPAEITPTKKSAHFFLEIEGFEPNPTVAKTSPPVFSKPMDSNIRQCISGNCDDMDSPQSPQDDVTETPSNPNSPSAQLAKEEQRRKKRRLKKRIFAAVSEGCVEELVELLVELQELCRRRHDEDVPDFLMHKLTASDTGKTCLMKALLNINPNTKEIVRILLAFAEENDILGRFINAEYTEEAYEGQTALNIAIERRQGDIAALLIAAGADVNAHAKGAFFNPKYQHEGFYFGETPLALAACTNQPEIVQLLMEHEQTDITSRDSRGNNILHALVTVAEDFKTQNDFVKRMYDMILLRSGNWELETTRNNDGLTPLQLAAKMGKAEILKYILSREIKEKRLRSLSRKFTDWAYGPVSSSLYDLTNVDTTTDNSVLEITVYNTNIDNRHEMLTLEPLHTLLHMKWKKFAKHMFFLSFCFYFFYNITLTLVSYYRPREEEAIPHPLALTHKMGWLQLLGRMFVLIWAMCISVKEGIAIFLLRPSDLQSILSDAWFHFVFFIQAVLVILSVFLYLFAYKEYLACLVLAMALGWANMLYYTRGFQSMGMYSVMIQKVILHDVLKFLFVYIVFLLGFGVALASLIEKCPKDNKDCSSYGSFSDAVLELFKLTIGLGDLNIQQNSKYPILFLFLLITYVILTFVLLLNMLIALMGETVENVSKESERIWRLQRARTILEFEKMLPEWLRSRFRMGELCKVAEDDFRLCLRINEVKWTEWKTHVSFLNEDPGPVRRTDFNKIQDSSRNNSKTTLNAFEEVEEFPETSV

[1] = Activity of E. coli lysates containing recombinant HuAATs (AAT enzyme assay, UPLC-qTOF readout); type: biochemical, Helichrysum umbraculigerum; conditions: for acyltransferase activity of lysate towards the substrates: butyryl-CoA and hexanoyl-CoA as acyl donors, CBGA and heliCBGA as acceptors, 30° C., 3 h
Procedure: as §1
as §2, with “The assay with the purified HuAAT5 enzyme was performed by mixing 2 μl of the cannabinoid acceptors (OA, CBGA, heliCBGA, CBDA, Δ^9-THCA or CBCA) with 2 μl of the acyl-CoA donors (butyryl-CoA, iso-butyryl-CoA, hexanoyl-CoA, iso-valeryl-CoA, or acetyl-CoA, 10 mM), 44 μl of a potassium phosphate buffer (100 mM, pH 7.4), and 2 μl of the purified HuAAT5 enzyme solution. The reactions were incubated at 30° C. for 3 h.” left out

For `CCCCCc1cc2c(c(O)c1C(=O)O)[C@@H]1C=C(C)CC[C@H]1C(C)(C)O2` (relative stereo) [Δ^9-THCA, (−)-trans-Δ^9-tetrahydrocannabinolic acid], the “acylation of the cannabinoid acceptor by purified HuAAT5” value (shortened to “acylation of the cannabinoid acceptor”) (HuAAT5) was “inactive”.

In the case of `CCCCCc1cc2c(c(O)c1C(=O)O)C=CC(C)(CCC=C(C)C)O2` (stereo not shown) [CBCA, cannabichromenic acid], the “acylation of the cannabinoid acceptor” value (HuAAT5) is reported as “inactive”.

For `C=C(C)[C@@H]1CCC(C)=C[C@H]1c1c(O)cc(CCCCC)c(C(=O)O)c1O` [CBDA, cannabidiolic acid], the “acylation of the cannabinoid acceptor” value (HuAAT5) was “successfully acylated”.

For `CCCCCc1cc(O)c(C/C=C(\C)CCC=C(C)C)c(O)c1C(=O)O` [CBGA, cannabigerolic acid], the “acylation of the cannabinoid acceptor” value (HuAAT5) was “successfully acylated”.

For `CCC(C)C(=O)Oc1cc(CCc2ccccc2)cc(O)c1CC=C(C)C` (stereo not shown) [O-methylbutyryl deprenylhelycannabigenol], the “affinity for the ionotropic TRPV3 ion channel” value (TRPV3 ion channel) is listed as “sub-micromolar”.

For `CCCCCc1cc(O)cc(O)c1C(=O)O` [OA, Olivetolic acid], the “acylation of the cannabinoid acceptor” value (HuAAT5) was “successfully acylated”.

With `CC(C)=CCCC(C)=CCc1c(O)cc(CCc2ccccc2)c(C(=O)O)c1O` [heliCBGA, helicannabigerolic acid] the “acylation of the cannabinoid acceptor” value (HuAAT5) was “successfully acylated”.

B1: HuAAT5: BAHD alcohol acyltransferase from Helichrysum umbraculigerum, recombinantly expressed in E. coli, SEQ ID NO: 19 (protein, listed as Helichrysum umbraculigerum)
chain: MPSSSSSPSSTADSVTIISKCTVYPHMKNSTPESLQLSVSDLPMLSCQYIQKGVLLSQPPPNHTNNIISHLKLSLSKTLSHFPPLAGRLSTDSHGHVSIICNDSGVEFVHSTANHLHTHQILPLNSDVHPCFKTFFAFDKTLSYAGHHQPIAAVQVTELADGLFIGCTVNHAVVDGTSFWNFFNTFAEITKGCQKVTNLPDFSRENVFISPVVLPLPSGGPSATFSGDEPLRERIIHFSRDAILKMKFRANNPLWRQPQNSDLDDTEIYGKVCNDINGKVNGAFKPKSEISSFQSLCGQLWRAVTRARKFNDPIKTTTFRMAVNCRHRLDPKVDKLYFGNLIQSIPTVASVGELLSHDLSWAANELHQNVVAHDNATVRRGVKDWENNPKLFPLGNFDGAMITMGSSPRFPMYNNDFGWGRPMAVRSGKANKFDGKISAFPGRDGDGSVDLEVVLAPETMACLERDHEFMQYVS
In the case of B1, the “amounts of products catalyzed, compared between the two active enzymes” value ([1]; HuAAT5 versus HuAAT14) is reported as “considerably greater amounts of products” and the “acyltransferase activity of lysate towards the substrates” value [1] is reported as “showed activity towards all of these substrates; also recorded: acylated the cannabinoids with both acyl-CoAs”.

B2: HuAAT14: BAHD alcohol acyltransferase from Helichrysum umbraculigerum, recombinantly expressed in E. coli, SEQ ID NO: 30 (protein, listed as Helichrysum umbraculigerum)
chain: MGTIYQSPMIKSSTPKIIEDLKVIIHDTFTIFPPHETEKRSMFLSNIDQVLTFNVETVHFFAANPDFPPQVVAEKLKLALSKALVPYDFLAGRLKLNHESQRFEFDCNGAGARFVVGSSEFELGEIGDLVYPNPGFRQLVQKSYDNLELHEKPLCILQLTSFKCGGFALGVATNHATFDGLSFKTFLQNLGSLAADQPLAVDPCNDRHLLAARSPPKVQFDHPELLKIPTGTDIPNPTVFDCPESQLDFKIFNLTSDDIAHLKTKAKDGPGSTNAKITGFNVVAAHVWRCKALSSGSEYDPERVSTVLYAVDIRSRLNLPLSLAGNAVLSAYASAKCKEIEEGPLSRLVEMVTEGTNRMTGEYARSVIDWGEVNKGFPNGEFLISSWWRLGFADVEYPWGKPRYSCPVVYHRKDIILLFPDIVGADNNNEVNVLVALPGKEMEKFETLFHKFLA
In the case of B2, the “acyltransferase activity of lysate towards the substrates” value [1] is reported as “showed activity towards all of these substrates; also recorded: acylated the cannabinoids with both acyl-CoAs”.
